Data as given in patent US7196080B2, “Phenylpyridinecarbonylpiperazinederivative” (Astellas Pharma Inc., priority 2001, dated 2007).

Experiments:
PDE1 = PDE1 inhibitory activity; assay type: biochemical; conditions: in the same concentration (as the PDE4 IC50, 12 nM or less)
Method: (§1) A concentration of test compound which inhibits 50% of the metabolic activity of PDE4 was defined as IC50 and calculated for each compound. By applying the above test method and the method described in WO 97/19078, inhibitory activity against PDE1, PDE2, PDE3 and PDE5 was measured similarly.

PDE2 = PDE2 (Homo sapiens, UniProt O00408); test: PDE2 inhibitory activity; assay type: biochemical; conditions: in the same concentration (as the PDE4 IC50, 12 nM or less)
Method: as §1

PDE3 = PDE3 inhibitory activity; assay type: biochemical; conditions: in the same concentration (as the PDE4 IC50, 12 nM or less)
Method: as §1

PDE5 = PDE5 (Homo sapiens, UniProt O76074); test: PDE5 inhibitory activity; assay type: biochemical; conditions: in the same concentration (as the PDE4 IC50, 12 nM or less)
Method: as §1

Chain of PDE2 (O00408 whole entry): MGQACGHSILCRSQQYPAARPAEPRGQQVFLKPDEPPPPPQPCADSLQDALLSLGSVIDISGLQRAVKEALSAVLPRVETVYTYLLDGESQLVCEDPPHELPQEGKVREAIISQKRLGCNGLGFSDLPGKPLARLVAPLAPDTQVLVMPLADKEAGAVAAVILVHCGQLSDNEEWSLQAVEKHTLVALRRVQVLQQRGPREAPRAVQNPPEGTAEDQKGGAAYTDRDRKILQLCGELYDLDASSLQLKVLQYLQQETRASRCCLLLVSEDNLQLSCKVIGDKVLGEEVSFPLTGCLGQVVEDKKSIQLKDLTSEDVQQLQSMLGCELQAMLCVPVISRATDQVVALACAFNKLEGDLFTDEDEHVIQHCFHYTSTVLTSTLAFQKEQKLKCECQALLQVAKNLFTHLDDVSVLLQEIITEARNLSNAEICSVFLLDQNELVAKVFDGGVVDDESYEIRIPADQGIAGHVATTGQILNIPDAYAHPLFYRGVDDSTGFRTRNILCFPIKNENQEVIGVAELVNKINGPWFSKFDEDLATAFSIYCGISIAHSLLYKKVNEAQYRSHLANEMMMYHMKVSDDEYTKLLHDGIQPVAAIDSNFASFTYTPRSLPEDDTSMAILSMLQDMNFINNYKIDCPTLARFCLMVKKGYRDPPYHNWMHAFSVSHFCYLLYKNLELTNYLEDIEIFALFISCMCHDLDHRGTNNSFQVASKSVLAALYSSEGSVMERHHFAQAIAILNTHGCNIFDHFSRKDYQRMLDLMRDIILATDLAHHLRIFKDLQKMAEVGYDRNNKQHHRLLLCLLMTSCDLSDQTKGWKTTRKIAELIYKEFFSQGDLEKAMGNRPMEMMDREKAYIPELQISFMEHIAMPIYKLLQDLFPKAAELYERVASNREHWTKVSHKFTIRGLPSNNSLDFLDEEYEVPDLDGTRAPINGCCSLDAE

| inhibitory activity against PDE2 (PDE2) | inhibitory activity against PDE5 (PDE5) | melting point | Molecule | inhibitory activity against PDE1 (PDE1) | inhibitory activity against PDE3 (PDE3) |
| --- | --- | --- | --- | --- | --- |
|  |  | 142 to 144 °C | COc1ccc(-c2cccc(C(=O)N3CCN(c4ccc(C(C)=O)cc4)CC3)n2)cc1OCC1CC1 (hydrate or solvate) [Example 112, 1-(4-{4-[6-(3-cyclopropylmethoxy-4-methoxyphenyl)pyridine-2-carbonyl]piperazin-1-yl}phenyl)ethanone] |  |  |
| hardly exhibited inhibitory activity | hardly exhibited inhibitory activity | 169 to 172 °C | COc1ccc(N2CCN(C(=O)c3cccc(-c4ccc(OC)c(OC)c4)n3)CC2)cc1 [Example 2, 1-[6-(3,4-dimethoxyphenyl)pyridine-2-carbonyl]-4-(4-methoxyphenyl)piperazine] | hardly exhibited inhibitory activity | hardly exhibited inhibitory activity |
|  |  | 164 to 165 °C | COc1ccc(-c2cccc(C(=O)N3CCN(c4ccc(N)cc4)CC3)n2)cc1OC [Example 9, 1-[6-(3,4-dimethoxyphenyl)pyridine-2-carbonyl]-4-(4-aminophenyl) piperazine] |  |  |
| hardly exhibited inhibitory activity | hardly exhibited inhibitory activity | 182 to 183 °C | COc1ccc(-c2cccc(C(=O)N3CCN(c4ccc(OCc5cc[n+]([O-])cc5)cc4)CC3)n2)cc1OC [Example 10, 1-[6-(3,4-dimethoxyphenyl)pyridine-2-carbonyl]-4-[4-(1-oxido-4-pyridylmethoxy)phenyl]piperazine] | hardly exhibited inhibitory activity | hardly exhibited inhibitory activity |
|  |  | 237 to 240 °C | COc1ccc(-c2cccc(C(=O)N3CCN(c4ccc(C(N)=O)cc4)CC3)n2)cc1OC [Example 12, 4-{4-[6-(3,4-dimethoxyphenyl)pyridine-2-carbonyl]piperazin-1-yl}benzamide] |  |  |
| hardly exhibited inhibitory activity | hardly exhibited inhibitory activity | 129 to 130 °C | COc1ccc(-c2cccc(C(=O)N3CCN(c4ccc(N5CCOCC5)cc4)CC3)n2)cc1OC [Example 15, 4-(4-{4-[6-(3,4-dimethoxyphenyl)pyridine-2-carbonyl]piperazin-1-yl)phenyl)morpholine] | hardly exhibited inhibitory activity | hardly exhibited inhibitory activity |
|  |  | 168 to 170 °C | COc1ccc(-c2cccc(C(=O)N3CCN(c4ccc(NS(C)(=O)=O)cc4)CC3)n2)cc1OC [Example 16, 4′-{4-[6-(3,4-dimethoxyphenyl)pyridine-2-carbonyl]piperazin-1-yl}methanesulfonanilide] |  |  |
| hardly exhibited inhibitory activity | hardly exhibited inhibitory activity | 161 to 163 °C | COc1ccc(-c2cccc(C(=O)N3CCN(c4ccc(C(C)=O)cc4)CC3)n2)cc1OC [Example 32] | hardly exhibited inhibitory activity | hardly exhibited inhibitory activity |
| hardly exhibited inhibitory activity | hardly exhibited inhibitory activity | 201 to 203 °C | COc1ccc(-c2cccc(C(=O)N3CCN(c4ccc(NC(C)=O)cc4)CC3)n2)cc1OC [Example 43, 4′-{4-[6-(3,4-dimethoxyphenyl)pyridine-2-carbonyl]piperazin-1-yl}acetanilide] | hardly exhibited inhibitory activity | hardly exhibited inhibitory activity |
| hardly exhibited inhibitory activity | hardly exhibited inhibitory activity | 131 to 134 °C | CCN(CC)CCC(=O)Nc1ccc(N2CCN(C(=O)c3cccc(-c4ccc(OC)c(OC)c4)n3)CC2)cc1 [Example 45, 3-diethylamino-4′-{4-[6-(3,4-dimethoxyphenyl)pyridine-2-carbonyl]piperazin-1-yl}propananilide] | hardly exhibited inhibitory activity | hardly exhibited inhibitory activity |
| hardly exhibited inhibitory activity | hardly exhibited inhibitory activity | 144 to 145 °C | COc1ccc(-c2cccc(C(=O)N3CCN(c4cccc(Br)n4)CC3)n2)cc1OC [Example 77, 1-(6-bromo-2-pyridyl)-4-[6-(3,4-dimethoxyphenyl)pyridine-2-carbonyl]piperazine] | hardly exhibited inhibitory activity | hardly exhibited inhibitory activity |
| hardly exhibited inhibitory activity | hardly exhibited inhibitory activity | 143 to 144 °C | COc1ccc(-c2cccc(C(=O)N3CCN(c4ccc(OCCN5CCC(O)CC5)cc4)CC3)n2)cc1OC [Example 95, 1-[2-(4-{4-[6-(3,4-dimethoxyphenyl)pyridine-2-carbonyl]piperazin-1-yl}phenoxy)ethyl]piperidin-4-ol] | hardly exhibited inhibitory activity | hardly exhibited inhibitory activity |
| hardly exhibited inhibitory activity | hardly exhibited inhibitory activity |  | COc1ccc(-c2cccc(C(=O)N3CCN(c4ccc(C(C)=O)cc4)CC3)n2)cc1OCC1CC1 [Example 112, 1-(4-{4-[6-(3-cyclopropylmethoxy-4-methoxyphenyl)pyridine-2-carbonyl]piperazin-1-yl}phenyl)ethanone] | hardly exhibited inhibitory activity | hardly exhibited inhibitory activity |
|  |  | 168 to 170 °C | COc1ccc(-c2cccc(C(=O)N3CCN(c4ccc(C(C)=O)cc4)CC3)n2)cc1Cl [Example 113] |  |  |
|  |  | 160 to 162 °C | COc1ccc(-c2cccc(C(=O)N3CCN(c4ccc(C(C)=O)cc4)CC3)n2)cc1OC(F)F [Example 114] |  |  |
|  |  | 168 to 170 °C | COc1ccc(-c2cccc(C(=O)N3CCN(c4ccc(C(C)=O)cc4)CC3)n2)cc1F [Example 115] |  |  |

| Molecule | inhibitory activity against PDE2 (PDE2) | inhibitory activity against PDE5 (PDE5) | melting point | inhibitory activity against PDE1 (PDE1) | inhibitory activity against PDE3 (PDE3) |
| --- | --- | --- | --- | --- | --- |
| 4-{2-[(6-{4-]6-(3,4-dimethoxyphenyl)pyridine-2-carbonyl)piperazin-1-yl}-3-pyridyl}oxylethyl)morpholine [Example 99] | hardly exhibited inhibitory activity | hardly exhibited inhibitory activity |  | hardly exhibited inhibitory activity | hardly exhibited inhibitory activity |
